Values of other authors, collected in article PMC3261373 (Bioconjugate Chemistry, 2011).

Experiments:
[1] = tested on: angiogenesis and tumor growth; details: in words
αvβ3-integrin = details: in vivo blocking studies

Which results are given for cyclic CNGRC [cyclic CNGRC peptide]?
binding affinity to APN (APN; enzyme inhibition studies): moderate binding affinity; binding to APN/CD13 (APN; in words): known to bind APN/CD13

Which “effect on angiogenesis and tumor growth” value [1] does the source give for `CC(C)C[C@H](NC(=O)[C@@H](O)[C@H](N)Cc1ccccc1)C(=O)O` [bestatin] here?
Its value is “suppressed angiogenesis and tumor growth”.

And the “mode of APN inhibition” value (APN; in words)?
Its value is “slow-binding competitive inhibitor”.

With “cyclic CisoDGRC [^99mTc-labeled cyclic CisoDGRC conjugate]” as the compound, how does the “binding to tumors and tissues expressing αvβ3-integrin” value (αvβ3-integrin) read?
Its value is “selective binding”.
